Measurements taken from US20170050957A1, “4-AMINO-6-(HETEROCYCLIC)PICOLINATES AND 6-AMINO-2-(HETEROCYCLIC)PYRIMIDINE-4-CARBOXYLATES AND THEIR USE AS HERBICIDES” (Dow AgroSciences LLC, priority 2013, published 2017).
Read-outs that look alike come from different tables or passages of the source.

Assays:
[1] = tested on: Key Broadleaf Weed and Crop Species; assay: Post-emergent Test II herbicidal activity (Table 15); assay type: in vivo; conditions: post-emergence, 336 h, 14 d; for pest or weed control at 35 g/ha: 35 g ai/ha; for pest or weed control at 70 g/ha: 70 g ai/ha; for pest or weed control at 140 g/ha: 140 g ai/ha
Procedure, shortened: (§1)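 Greenhouse-grown seedlings at first/second true leaf receive a track spray at 187 L/ha, using a highest rate plus two-fold serial dilutions down to 1/16×. Watering is by subirrigation to avoid wash-off. Percent injury (0-100) is judged by eye at 14 d against untreated plants.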

[2] = tested on: Key Grass and Sedge Weeds as well as Grass Crops; assay: Post-emergent Test II herbicidal activity (Table 16); assay type: in vivo; conditions: post-emergence, 336 h, 14 d; for pest or weed control at 35 g/ha: 35 g ai/ha; for pest or weed control at 70 g/ha: 70 g ai/ha; for pest or weed control at 140 g/ha: 140 g ai/ha
Procedure, shortened: as §1

[3] = Abutilon theophrasti, velvetleaf (Abutilon theophrasti), read-out: Visual Growth Reduction (%) 14 Days After Application, ABUTH
[4] = Amaranthus retroflexus, redroot pigweed (Amaranthus retroflexus), read-out: Visual Growth Reduction (%) 14 Days After Application, AMARE
[5] = Brassica napus, oilseed rape, canola (Brassica napus), read-out: Visual Growth Reduction (%) 14 Days After Application, BRSNN
[6] = Chenopodium album, lambsquarters (Chenopodium album), read-out: Visual Growth Reduction (%) 14 Days After Application, CHEAL
[7] = Euphorbia heterophylla, wild poinsettia (Euphorbia heterophylla), read-out: Visual Growth Reduction (%) 14 Days After Application, EPHHL
[8] = Helianthus annuus, sunflower (Helianthus annuus), read-out: Visual Growth Reduction (%) 14 Days After Application, HELAN
[9] = Cyperus esculentus, yellow nutsedge (Cyperus esculentus), read-out: Visual Growth Reduction (%) 14 Days After Application, CYPES
[10] = Echinochloa crus-galli, barnyardgrass (Echinochloa crus-galli), read-out: Visual Growth Reduction (%) 14 Days After Application, ECHCG
[11] = Oryza sativa, rice (Oryza sativa), read-out: Visual Growth Reduction (%) 14 Days After Application, ORYSA
[12] = Setaria faberi, giant foxtail (Setaria faberi), read-out: Visual Growth Reduction (%) 14 Days After Application, SETFA
[13] = Triticum aestivum, wheat, spring (Triticum aestivum), read-out: Visual Growth Reduction (%) 14 Days After Application, TRZAS
[14] = Zea mays, maize, corn (Zea mays), read-out: Visual Growth Reduction (%) 14 Days After Application, ZEAMX

Structure (SMILES)	pest or weed control at 35 g/ha [1, 3]	pest or weed control at 70 g/ha [1, 3]	pest or weed control at 140 g/ha [1, 3]	pest or weed control at 35 g/ha [1, 4]	pest or weed control at 70 g/ha [1, 4]	pest or weed control at 140 g/ha [1, 4]	pest or weed control at 35 g/ha [1, 5]	pest or weed control at 70 g/ha [1, 5]	pest or weed control at 140 g/ha [1, 5]	pest or weed control at 35 g/ha [1, 6]	pest or weed control at 70 g/ha [1, 6]	pest or weed control at 140 g/ha [1, 6]	pest or weed control at 35 g/ha [1, 7]	pest or weed control at 70 g/ha [1, 7]	pest or weed control at 140 g/ha [1, 7]	pest or weed control at 35 g/ha [1, 8]	pest or weed control at 70 g/ha [1, 8]	pest or weed control at 140 g/ha [1, 8]	pest or weed control at 35 g/ha [2, 9]	pest or weed control at 70 g/ha [2, 9]	other results
COC(=O)c1nc(-c2ccc3sccc3c2)c(F)c(N)c1Cl [Compound 3.03]	95 to 100%	95 to 100%	95 to 100%	95 to 100%	95 to 100%	95 to 100%	0 to 29%	60 to 74%	60 to 74%	95 to 100%	95 to 100%	95 to 100%	95 to 100%	95 to 100%	95 to 100%	95 to 100%	95 to 100%	95 to 100%	45 to 59%	45 to 59%	pest or weed control at 140 g/ha [2, 9]: 45 to 59%; pest or weed control at 35 g/ha [2, 10]: 85 to 94%; pest or weed control at 70 g/ha [2, 10]: 95 to 100%; pest or weed control at 140 g/ha [2, 10]: 95 to 100%; pest or weed control at 35 g/ha [2, 11]: 0 to 29%; pest or weed control at 70 g/ha [2, 11]: 0 to 29%; pest or weed control at 140 g/ha [2, 11]: 0 to 29%; pest or weed control at 35 g/ha [2, 12]: 0 to 29%; pest or weed control at 70 g/ha [2, 12]: 85 to 94%; pest or weed control at 140 g/ha [2, 12]: 85 to 94%; pest or weed control at 35 g/ha [2, 13]: 0 to 29%; pest or weed control at 70 g/ha [2, 13]: 30 to 44%; pest or weed control at 140 g/ha [2, 13]: 45 to 59%; pest or weed control at 35 g/ha [2, 14]: 95 to 100%; pest or weed control at 70 g/ha [2, 14]: 95 to 100%; pest or weed control at 140 g/ha [2, 14]: 95 to 100%; melting point: 84 to 85 °C
COC(=O)c1nc(-c2ccc(Cl)c3[nH]ccc23)nc(N)c1OC [Compound 1.45]	0 to 29%	0 to 29%	0 to 29%	0 to 29%	0 to 29%	45 to 59%	0 to 29%	0 to 29%	0 to 29%	0 to 29%	0 to 29%	0 to 29%	0 to 29%	0 to 29%	0 to 29%	0 to 29%	0 to 29%	30 to 44%	0 to 29%	0 to 29%	pest or weed control at 140 g/ha [2, 9]: 0 to 29%; pest or weed control at 35 g/ha [2, 10]: 0 to 29%; pest or weed control at 70 g/ha [2, 10]: 0 to 29%; pest or weed control at 140 g/ha [2, 10]: 0 to 29%; pest or weed control at 35 g/ha [2, 11]: 0 to 29%; pest or weed control at 70 g/ha [2, 11]: 0 to 29%; pest or weed control at 140 g/ha [2, 11]: 0 to 29%; pest or weed control at 35 g/ha [2, 12]: 0 to 29%; pest or weed control at 70 g/ha [2, 12]: 0 to 29%; pest or weed control at 140 g/ha [2, 12]: 0 to 29%; pest or weed control at 35 g/ha [2, 13]: 0 to 29%; pest or weed control at 70 g/ha [2, 13]: 0 to 29%; pest or weed control at 140 g/ha [2, 13]: 0 to 29%; pest or weed control at 35 g/ha [2, 14]: 0 to 29%; pest or weed control at 70 g/ha [2, 14]: 0 to 29%; pest or weed control at 140 g/ha [2, 14]: 0 to 29%; melting point: 226 °C
